The text below walks through data of paper PMC6930659, “Antiprotozoal Activity of Turkish Origanum onites Essential Oil and Its Components” (Molecules, 2019).

For orientation: IC50 means the midpoint of a concentration-inhibition curve.

The structures appear in SMILES notation. ≈ marks a conversion by molar mass, not a printed value. Entries after “also recorded” stand apart in the source; their conditions may differ. Read-outs that look alike come from different tables or passages of the source.

Series [1] relates to Trypanosoma brucei rhodesiense STIB 900. Nature of the series: In vitro assay for Trypanosoma brucei rhodesiense (resazurin). The class given is cell-based. Here is the method: Trypanosoma brucei rhodesiense STIB 900 strain, isolated in 1982 from a human patient in Tanzania and, after several mouse passages, cloned and adapted to axenic culture conditions, was used in this assay. Minimum essential medium (50 μL) supplemented with 25 mM HEPES, 1 g/L additional glucose, 1% MEM non-essential amino acids (100×), 0.2 mM 2-mercaptoethanol, 1 mM Na-pyruvate, and 15% heat inactivated horse serum was added to each well of a 96 well microtiter plate. Serial drug dilutions of seven 3-fold dilution steps covering a range from 90 to 0.123 μg/mL were prepared, and then 4 × 10^4 blood stream forms of T. b. rhodesiense STIB 900 in 50 μL were added to each well and the plate was incubated at 37 °C under a 5% CO2 atmosphere for 72 h. Resazurin solution (resazurin, 12.5 mg in 100 mL double-distilled water) (10 μL) was then added to each well and incubated for a further 2–4 h. At the end of the assay, the plates were read with a Spectramax Gemini XS microplate fluorometer (Molecular Devices Cooperation, Sunnyvale, CA, USA) using an excitation wavelength of 536 nm and an emission wavelength of 588 nm. Data were analyzed using the microplate reader software Softmax Pro (Molecular Devices Cooperation, Sunnyvale, CA, USA). Melarsoprol was used as standard drug.
(In general: The colour change of resazurin is a common sign of viable cells or microbes.)

Series [2] relates to L. donovani (strain MHOM/ET/67/L82) amastigotes. Nature of the series: In vitro assay for Leishmania donovani axenic amastigotes (resazurin). In kind it is cell-based. The settings on record: 72 h, read-out: IC50 Leishmania donovani. Here is the method:
Amastigotes of L. donovani (strain MHOM/ET/67/L82) were grown in axenic culture at 37 °C in SM medium at pH 5.4 supplemented with 10% heat-inactivated FBS under an atmosphere of 5% CO2. Culture medium (100 μL) with 10^5 amastigotes from axenic culture with or without a serial drug dilution was seeded in 96 well microtiter plates. Serial drug was prepared covering a range of dilutions from 90 to 0.123 μg/mL. After 72 h of incubation, the plates were inspected under an inverted microscope to assure growth of the controls and sterile conditions. Subsequently, 10 μL resazurin solution (12.5 mg resazurin dissolved in 100 mL double-distilled water) was added to each well and the plates were incubated for another 2 h. The plates were then read with a Spectramax Gemini XS microplate fluorometer (Molecular Devices Cooperation, Sunnyvale, CA, USA) using an excitation wavelength of 536 nm and an emission wavelength of 588 nm. Data were analyzed using the software Softmax Pro (Molecular Devices Cooperation, Sunnyvale, CA, USA). A decrease of fluorescence (=inhibition) was expressed as percentage of the fluorescence of control cultures and plotted against the drug concentrations. From the sigmoidal inhibition curves, the IC50 values were calculated. Miltefosine was used as a reference drug.

Series [3] is described as follows: In vitro assay for cytotoxicity on mammalian cells (resazurin). The class given is cell-based, rat. The protocol: Assays were performed in 96 well microtiter plates (4 × 10^4 L6 cells/well), each well containing 100 μL of RPMI 1640 medium supplemented with 1% L-glutamine (200 mM) and 10% FBS. L6 cells are a primary cell line derived from rat skeletal myoblasts. Serial drug dilutions of seven 3-fold dilution steps covering a range from 90 to 0.123 μg/mL were prepared. After 72 h of incubation, the plates were inspected under an inverted microscope to assure growth of the controls and sterile conditions. Resazurin solution (10 μL) (12.5 mg resazurin in 100 mL double-distilled water) was then added to each well and the plates incubated for another 2 h. The plates were then read with a Spectramax Gemini XS microplate fluorometer (Molecular Devices Cooperation, Sunnyvale, CA, USA) using an excitation wavelength of 536 nm and an emission wavelength of 588 nm. Data were analyzed using the microplate reader software Softmax Pro (Molecular Devices Cooperation, Sunnyvale, CA, USA). From the sigmoidal inhibition curves, the IC50 values were calculated. Podophyllotoxin was the positive control.

The next series deals with T. brucei brucei STIB795. Nature of the series: In vivo trypanocidal activity, T. brucei brucei STIB795 mouse model. Also noted: species or system Trypanosoma brucei brucei. The conditions noted are these: for in vivo trypanocidal activity in mice (in words): 100 mg/kg i.p.; for Cured/Infected / Mean Survival: 100 mg/kg × 4 days i.p., NMRI mice; for Mean Survival: untreated control 5.25 days. The protocol: In vivo efficacy studies in mice were conducted at the Swiss Tropical and Public Health Institute (Basel) (License number 2813) according to the rules and regulations for the protection of animal rights (“Tierschutzverordnung”) of the Swiss “Bundesamt für Veterinärwesen”. They were approved by the veterinary office of Canton Basel-Stadt, Switzerland. Groups of four female NMRI mice weighing 20 to 25 g were infected i.p. on Day 0 (d0) with 10^5 bloodstream forms of T. brucei brucei STIB 795, which is a derivative of strain 427. Compounds were formulated in 100% DMSO diluted 10-fold in distilled water. Mice were treated on four consecutive days (d3 to d6 post-infection) with the Origanum onites oil, as well as carvacrol and thymol, at 100 mg/kg by the i.p. route. One group served as untreated controls, and two other groups were treated with the standard drugs pentamidine (5 mg/kg for 4 days) and melarsoprol (2 mg/kg for 4 days), respectively. The levels of parasitemia of the mice were checked by microscopic examination of tail blood on Day 7 and thereafter twice a week until Day 30 post infection. Mice were considered cured when there was no parasitaemia relapse detected in the tail blood over the 30 day observation period. The day of relapse and surviving days were recorded.

Series [4] relates to P. falciparium FCR-3 strain. Also noted: method as in PMID 23082579. The settings on record: cited from earlier work.
Series [5] relates to promastigote forms of L. chagasi. Set-up: method as in PMID 23558998, PMID 23850505. The conditions noted are these: cited from earlier work.
A further series concerns T. brucei brucei. Also noted: method as in PMID 20359874. The conditions noted are these: life stage or form has not been reported; cited from earlier work.

Take `Cc1ccc(C(C)C)cc1O` [Carvacrol]: in series [1] (Trypanosoma brucei; STIB 900 blood stream forms, 72 h; means of two independent determinations ± deviation from the mean; read-out: IC50 Trypanosoma brucei rhodesiense), the IC50 was 0.15 ± 0.04 µg/mL (≈ 0.999 µM). Moreover, the “selectivity index (IC50 value against L6 mammalian cells/IC50 value against parasite)” value in series [1] (against T. b. rhodesiense) is reported as 327.5. For the same compound, the IC50 in series [2] is 13.1 ± 3.9 µg/mL (≈ 87.2 µM). In addition, in series [3] (rat), the IC50 at 72 h was 48.8 ± 1.1 µg/mL (≈ 325 µM). For the same compound, in the series with T. brucei brucei STIB795, the “in vivo trypanocidal activity in mice (in words)” value is “inactive”, the Cured/Infected was 0/4 and the “Mean Survival” value came out at 5.25 days. Also, the “IC50 in vitro antimalarial activity” value in series [4] was 10 µg/mL (≈ 66.6 µM). Besides, the “IC50 promastigote forms of L. chagasi” value in series [5] is 2.3 µg/mL. Besides, the “IC50 T. brucei brucei” value in the series on T. brucei brucei is 11.3 µg/mL (≈ 75.2 µM).

`Cc1ccc(C(C)C)c(O)c1` [Thymol]: the IC50 in series [1] (Trypanosoma brucei, 72 h, STIB 900 blood stream forms, 72 h; means of two independent determinations ± deviation from the mean; read-out: IC50 Trypanosoma brucei rhodesiense) worked out at 0.11 ± 0.01 µg/mL (≈ 0.732 µM). The IC50 in series [2] (axenic amastigotes, means of two determinations ± deviation) came to 17.3 ± 4.1 µg/mL (≈ 115 µM). The IC50 at 72 h in series [3] (L6 cells (rat skeletal myoblasts), rat skeletal myoblasts, 72 h, means of two determinations ± deviation, read-out: IC50 Cytotoxicity L6 cells) was found to be 51.8 ± 6.2 µg/mL (≈ 345 µM). In the series with T. brucei brucei STIB795, the “in vivo trypanocidal activity in mice (in words)” value is “extended the survival time of infected mice; also recorded: had some effect”, the Cured/Infected is recorded as 0/4 and the “Mean Survival” value came out at 9.0 days. In addition, the “Mean Survival” value in the series with T. brucei brucei STIB795 (listed as thymol) is reported as 9 days. For the same compound, the “IC50 in vitro antimalarial activity” value in series [4] was 10 µg/mL (≈ 66.6 µM). The “IC50 promastigote forms of L. chagasi” value in series [5] was 9.8 µg/mL. Further, the “IC50 T. brucei brucei” value in the series with T. brucei brucei was 22.9 µg/mL (≈ 152 µM).
